Data: ChEMBL document CHEMBL4706749, “Development of Fluorescence Imaging Probes for Labeling COX-1 in Live Ovarian Cancer Cells” (ACS Med Chem Lett, 2021)

Assays:
[1] = Drug uptake in human OVCAR-3 cells by measuring perinuclear fluorescence staining at 10 uM incubated for 30 mins by Hoechst-33258 staining based confocal laser scanning microscopic analysis; assay type: ADME, cell-based; conditions: ovcar-3, 0.5 h
[2] = Drug uptake in human COX1-negative HCA7 cells at 10 uM incubated for 30 mins by Hoechst-33258 staining based confocal laser scanning microscopic analysis; assay type: ADME, cell-based; conditions: hca7, 0.5 h

**Q.** For `O=C(O)c1ccc(-n2nc(-c3ccco3)cc2-n2cc(CNc3ccc([N+](=O)[O-])c4nonc34)nn2)cc1`, which Drug uptake [1] is on record?
**A.** Active

**Q.** And the Drug uptake [2]?
**A.** Not Active
